Results reported in patent EP2790511B1 (Merck Sharp & Dohme Corp., priority 2011, dated 2013).

Biological target: T1, hROMK (hKir1.1) (Homo sapiens, UniProt P48048)
T1 construct: expressed in transfected cells
T1 sequence (P48048 1-391): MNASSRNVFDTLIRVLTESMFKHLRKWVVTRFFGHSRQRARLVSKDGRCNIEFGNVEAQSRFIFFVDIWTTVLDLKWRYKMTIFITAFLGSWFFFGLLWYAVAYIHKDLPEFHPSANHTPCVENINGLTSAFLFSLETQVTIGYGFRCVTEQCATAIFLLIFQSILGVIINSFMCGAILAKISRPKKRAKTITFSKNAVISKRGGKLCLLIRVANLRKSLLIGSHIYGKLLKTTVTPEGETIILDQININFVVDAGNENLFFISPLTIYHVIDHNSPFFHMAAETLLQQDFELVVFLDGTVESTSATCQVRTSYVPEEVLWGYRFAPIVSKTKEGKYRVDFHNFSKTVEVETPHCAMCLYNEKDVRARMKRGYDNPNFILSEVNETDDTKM
Assay: Thallium Flux Assay
Format: cell-based
Conditions: HEK293 cells stably expressing hROMK (hKir1.1), FLIPR-Tetra; read-out: Thallium Flux IC50
How it was run: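 HEK293 cells stably expressing hROMK, loaded with FluxOR dye 90 min at ambient temperature, then compound 30 min with 0.3 mM ouabain in probenecid buffer pH 7.4.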

For `O=C1OCCc2cc([C@@H]3CN4CCN(C(=O)Cc5cnc(-n6cnnn6)cn5)C[C@H]4CO3)ccc21` [Example 80, 6-[(3R,9aS)-8-{[5-(1H-tetrazol-1-yl)pyrazin-2-yl]acetyl}octahydropyrazino[2,1-c][1,4]oxazin-3-yl]-3,4-dihydro-1H-isochromen-1-one], which IC50 is on record?
The IC50 was 500 nM.

For `N#Cc1cc([C@@H]2CN3CCN(C(=O)Cc4ccc(-n5cnnn5)cn4)C[C@H]3CO2)c(F)cc1F` [Example 82, 2,4-difluoro-5-[(3R,9aS)-8-{[5-(1H-tetrazol-1-yl)pyridin-2-yl]acetyl}octahydropyrazino[2,1-c][1,4]oxazin-3-yl]benzonitrile], which IC50 is on record?
Its IC50 is 340 nM.

How did the IC50 turn out when `N#Cc1c(F)ccc([C@H]2CN3CCN(C(=O)Cc4ccc(-n5cnnn5)cn4)C[C@H]3CO2)c1F` [Example 86] was run?
The IC50 was 290 nM.

With `Cc1c([C@@H]2CN3CCN(C(=O)Cc4cccc(-n5cnnn5)n4)C[C@H]3CO2)ccc(F)c1C#N` [Example 98, 6-fluoro-2-methyl-3-[(3R,9aS)-8-{[6-(1H-tetrazol-1-yl)pyridin-2-yl]acetyl}octahydropyrazino[2,1-c][1,4]oxazin-3-yl]benzonitrile] as the compound, how does the IC50 read?
The IC50 was 560 nM.

`Cc1c([C@@H]2CN3CCN(C(=O)Cc4ccnc(-n5cnnn5)c4)C[C@H]3CO2)ccc(F)c1C#N` [Example 99, 6-fluoro-2-methyl-3-[(3R,9aS)-8-{[2-(1H-tetrazol-1-yl)pyridin-4-yl]acetyl}octahydropyrazino[2,1-c][1,4]oxazin-3-yl]benzonitrile] was tested. Which IC50 did it give?
Its IC50 is 340 nM.

For `Cc1c([C@H]2CN3CCN(C(=O)Cc4ccnc(-n5cnnn5)c4)C[C@H]3CO2)ccc(F)c1C#N` [Example 100], which IC50 is on record?
The IC50 was 190 nM.

With `Cc1c([C@H]2CN3CCN(C(=O)Cc4cncc(-n5cnnn5)c4)C[C@H]3CO2)ccc(F)c1C#N` [Example 101, 6-fluoro-2-methyl-3-[(3S,9aS)-8-{[5-(1H-tetrazol-1-yl)pyridin-3-y]acetyl}octahydropyrazino[2,1-c][1,4]oxazin-3-yl]benzonitrile] as the compound, how does the IC50 read?
Its IC50 is 180 nM.

With `O=C(Cc1ccc(-n2cnnn2)nc1)N1CCN2C[C@@H](c3cccc(-n4cnnn4)c3)OC[C@@H]2C1` [Example 103, (3R,9aS)-3-[3-(1H-tetrazol-1-yl)phenyl]-8-{[6-(1H-tetrazol-1-vl)pvridin-3-yl]acetyl}octahydropyrazino[2,1-c][1,4]oxazine] as the compound, how does the IC50 read?
The IC50 was 340 nM.

With `Cc1c([C@@H]2CN3CCN(C(=O)Cc4ccc(-n5cnnn5)nc4)C[C@H]3CO2)cccc1-n1cnnn1` [Example 104, (3R,9aS)-3-[2-methyl-3-(1H-tetrazol-1-yl)phenyl]-8-{[6-(1H-tetrazol-1-yl)pyridin-3-yl]acetyl}octahydropyrazino[2,1-c][1,4]oxazine] as the compound, how does the IC50 read?
The IC50 was 480 nM.

With `C[C@@H]1Cc2cc([C@]3(C)CN4CCN(C(=O)Cc5ccc(-n6cnnn6)nc5)C[C@H]4CO3)ccc2C(=O)O1` [Example 105, (3R)-3-methyl-6-[(3R,9a,S)-3-methyl-8-{[6-(1H-tetrazol-1-vl)pvridin-3-yl]acetyl}octahydropyrazino[2,1-c][1,4]oxazin-3-yl]-3,4-dihydro-1H-isochromen-1-one] as the compound, how does the IC50 read?
The IC50 was 350 nM.

With `C[C@H]1Cc2cc([C@]3(C)CN4CCN(C(=O)Cc5ccc(-n6cnnn6)nc5)C[C@H]4CO3)ccc2C(=O)O1` [Example 106, (3S)-3-methyl-6-[(3R,9aS)-3-methyl-8-{[6-(1H-tetrazol-1-yl)pyridin-3-yl]acetyl}octahydropyrazino[2,1-c][1,4]oxazin-3-yl]-3,4-dihydro-1H-isochromen-1-one] as the compound, how does the IC50 read?
Its IC50 is 420 nM.

`N#Cc1c(F)cc([C@@H]2CN3CCN(C(=O)Cc4ccc(-n5cnnn5)nc4)C[C@@H]3CO2)cc1F` [Example 107, 2,6-difluoro-4-[(3R,9aR)-8-{[6-(1H-tetrazol-1-yl)pyridin-3-yl]acetyl}octahydropyrazino[2,1-c][1,4]oxazin-3-yl]benzonitrile] was tested. Which IC50 did it give?
Its IC50 is 170 nM.

For `N#Cc1c(F)cc([C@H]2CN3CCN(C(=O)Cc4ccc(-n5cnnn5)nc4)C[C@@H]3CO2)cc1F` [Example 108, 2,6-difluoro-4-[(3S,9aR)-8-{[6-(1H-tetrazol-1-yl)pyridin-3-yl]acetyl}octahydropyrazino[2,1-c][1,4]oxazin-3-yl]benzonitrile], which IC50 is on record?
The IC50 was 490 nM.

For `N#Cc1c(F)cc([C@H]2CN3CCN(C(=O)Cc4ccc(-n5cnnn5)nc4)C[C@H]3CO2)cc1F` [Example 109, 2,6-difluoro-4-[(3S,9aS)-8-{[6-(1H-tetrazol-1-yl)pyridin-3-yl]acetyl}octahydropyrazino[2,1-c][1,4]oxazin-3-yl]benzonitrile], which IC50 is on record?
The IC50 was 190 nM.

For `N#Cc1c(F)cc([C@@H]2CN3CCN(C(=O)Cc4ccc(-n5cnnn5)nc4)C[C@H]3CO2)cc1F` [Example 110, 2,6-difluoro-4-[(3R,9aS)-8-{[6-(1H-tetrazol-1-yl)pyridin-3-yl]acetyl}octahydropyrazino[2,1-c][1,4]oxazin-3-yl]benzonitrile], which IC50 is on record?
Its IC50 is 370 nM.

For `COc1cc([C@@H]2CN3CCN(C(=O)Cc4ccc(-n5cnnn5)nc4)C[C@@H]3CO2)cc(F)c1C#N` [Example 111, 2-fluoro-6-methoxy-4-[(3R,9aR)-8-{[6-(1H-tetrazol-1-vl)pvridin-3-yl]acetyl}octahydropyrazino[2,1-c][1,4]oxazin-3-yl]benzonitrile], which IC50 is on record?
The IC50 was 170 nM.

For `COc1cc([C@H]2CN3CCN(C(=O)Cc4ccc(-n5cnnn5)nc4)C[C@@H]3CO2)cc(F)c1C#N` [Example 112, 2-fluoro-6-methoxy-4-[(3S,9aR)-8-{[6-(1H-tetrazol-1-vl)pvridin-3-yl]acetyl}octahydropyrazino[2,1-c][1,4]oxazin-3-yl]benzonitrile], which IC50 is on record?
The IC50 was 220 nM.

Same assay, conditions: Thallium Flux IC50

`N#Cc1cc([C@@H]2CN3CCN(C(=O)Cc4ccc(-n5cnnn5)nc4)C[C@H]3CO2)c(F)cc1F` [Example 81, 2,4-difluoro-5-[(3R,9aS)-8-{[6-(1H-tetrazol-1-yl)pyridin-3-yl]acetyl}octahydropyrazino[2,1-c][1,4]oxazin-3-yl]benzonitrile] was tested. Which IC50 did it give?
Its IC50 is 160 nM.

`Cc1c([C@H]2CN3CCN(C(=O)Cc4cnc(-n5cnnn5)cn4)C[C@H]3CO2)ccc2c1COC2=O` [Example 83] was tested. Which IC50 did it give?
Its IC50 is 160 nM.

`Cc1cc(-n2cnnn2)cnc1CC(=O)N1CCN2C[C@@H](c3ccc(F)c(C#N)c3C)OC[C@@H]2C1` [Example 84, 6-fluoro-2-methyl-3-[(3R,9aS)-8-{[3-methyl-5-(1H-tetrazol-1-vl)pvridin-2-yl]acetyl}octahydropyrazino[2,1-c][1,4]oxazin-3-yl]benzonitrile] was tested. Which IC50 did it give?
Its IC50 is 230 nM.

`Cc1cc(-n2cnnn2)cnc1CC(=O)N1CCN2C[C@H](c3ccc(F)c(C#N)c3C)OC[C@@H]2C1` [Example 85, 6-fluoro-2-methyl-3-[(3S,9aS)-8-{[3-methyl-5-(1H-tetrazol-1-vl)pvridin-2-yl]acetyl}octahydropyrazino[2,1-c][1,4]oxazin-3-yl]benzonitrile] was tested. Which IC50 did it give?
The IC50 was 240 nM.

How did the IC50 turn out when `N#Cc1c(F)ccc([C@H]2CN3CCN(C(=O)Cc4ccc(-n5cnnn5)nc4)C[C@@H]3CO2)c1F` [Example 87, 2,6-difluoro-3-[(3S,9aR)-8-{[6-(1H-tetrazol-1-yl)pyridin-3-yl]acetyl}octahydropyrazino[2,1-c][1,4]oxazin-3-yl]benzonitrile] was run?
Its IC50 is 220 nM.

`N#Cc1c(F)ccc([C@@H]2CN3CCN(C(=O)Cc4ccc(-n5cnnn5)nc4)C[C@@H]3CO2)c1F` [Example 88, 2,6-difluoro-3-[(3R,9aR)-8-{[6-(1H-tetrazol-1-yl)pyridin-3-yl]acetyl}octahydropyrazino[2,1-c][1,4]oxazin-3-yl]benzonitrile] was tested. Which IC50 did it give?
The IC50 was 90 nM.

For `Cc1c(C#N)cccc1[C@H]1CN2CCN(C(=O)Cc3ccc(-n4cnnn4)nc3)C[C@H]2CO1` [Example 90, 2-methyl-3-[(3S,9aS)-8-{[6-(1H-tetrazol-1-yl)pyridin-3-yl]acetyl}octahydropyrazino[2,1-c][1,4]oxazin-3-yl]benzonitrile], which IC50 is on record?
Its IC50 is 130 nM.

`Cc1c(C#N)cccc1[C@@H]1CN2CCN(C(=O)Cc3ccc(-n4cnnn4)nc3)C[C@H]2CO1` [Example 91, 2-methyl-3-[(3R,9aS)-8-{[6-(1H-tetrazol-1-yl)pyridin-3-yl]acetyl}octahydropyrazino[2,1-c][1,4]oxazin-3-yl]benzonitrile] was tested. Which IC50 did it give?
Its IC50 is 60 nM.

With `Cc1nc(-n2cnnn2)ccc1CC(=O)N1CCN2C[C@H](c3cccc(C#N)c3C)OC[C@@H]2C1` [Example 92, 2-methyl-3-[(3S,9aS)-8-{[2-methyl-6-(1H-tetrazol-1-yl)pyridin-3-yl]acetyl}octahydropyrazino[2,1-c][1,4]oxazin-3-yl]benzonitrile] as the compound, how does the IC50 read?
Its IC50 is 200 nM.

How did the IC50 turn out when `Cc1c([C@H]2CN3CCN(C(=O)Cc4cccc(-n5cnnn5)n4)C[C@H]3CO2)ccc(F)c1C#N` [Example 97, 6-fluoro-2-methyl-3-[(3S,9aS)-8-{[6-(1H-tetrazol-1-yl)pyridin-2-yl]acetyl}octahydropyrazino[2,1-c][1,4]oxazin-3-yl]benzonitrile] was run?
Its IC50 is 250 nM.

Which IC50 does the source give for `Cc1c([C@@H]2CN3CCN(C(=O)Cc4ccc(-n5cnnn5)nc4)C[C@@H]3CO2)ccc(F)c1C#N` [Example 102, 6-fluoro-2-methyl-3-[(3R,9aR)-8-{[6-(1H-tetrazol-1-yl)pyridin-3-yl]acetyl}octahydropyrazino[2,1-c][1,4]oxazin-3-yl]benzonitrile] here?
Its IC50 is 150 nM.
